Structures are written as SMILES.

The values that follow come from article PMC7326016, “Structural Studies of Glutamate Dehydrogenase (Isoform 1) From Arabidopsis thaliana, an Important Enzyme at the Branch-Point Between Carbon and Nitrogen Metabolism” (Frontiers in Plant Science, 2020).

Assay [1] addresses T1, Glutamate dehydrogenase isoform 1 (AtGDH1) (Arabidopsis thaliana, UniProt Q43314).
T1 construct: gene GDH1; full-length, 411 residues, homohexamer
The experiment in a line: crystal structure at […] Å (one closed subunit; ligand captured from E. coli; polder map). The format is binding.

In assay [2] the target is T1, Glutamate dehydrogenase isoform 1 (AtGDH1). The experiment in a line: ITC (in presence of […] 2OG) and crystal structure at […] Å. Type of assay: binding.

T1 sequence (Q43314 whole entry, canonical isoform): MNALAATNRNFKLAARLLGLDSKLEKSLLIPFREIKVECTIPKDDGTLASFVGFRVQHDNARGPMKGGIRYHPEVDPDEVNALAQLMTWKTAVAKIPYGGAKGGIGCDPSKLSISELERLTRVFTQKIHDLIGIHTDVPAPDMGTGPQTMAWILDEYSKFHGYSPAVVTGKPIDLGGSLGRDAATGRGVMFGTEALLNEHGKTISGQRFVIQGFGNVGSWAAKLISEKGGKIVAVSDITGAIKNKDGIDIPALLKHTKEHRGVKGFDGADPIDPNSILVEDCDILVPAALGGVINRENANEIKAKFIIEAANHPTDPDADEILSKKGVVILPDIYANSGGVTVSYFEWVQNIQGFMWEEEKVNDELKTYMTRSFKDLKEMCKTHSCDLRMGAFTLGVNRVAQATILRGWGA

In the case of `O=C(O)CCC(=O)C(=O)O` [2-oxoglutarate], the “crystal structure at 2.03 Å (one closed subunit); ligand captured from E. coli; p” value in assay [1] is reported as “the closed conformation subunit contains 2OG, the GDH reaction product, bound in the active site”. As usually defined, the Kd is the equilibrium constant for the complex coming apart. Regarding `NC(=O)c1ccc[n+]([C@@H]2O[C@H](COP(=O)([O-])OP(=O)(O)OC[C@H]3O[C@@H](n4cnc5c(N)ncnc54)[C@H](O)[C@@H]3O)[C@@H](O)[C@H]2O)c1` [NAD^+], the Kd in assay [2] stood at 72 ± 6 µM.
